Laboratory results as given in patent US20260200928A1, “THERAPEUTIC COMPOUNDS” (Sanofi, priority 2022, published 2026).

Molecular target: T1, human IL-17A (Homo sapiens, UniProt Q16552)
T1 construct: purchased R&D Systems 7955-IL/CF
T1 sequence (Q16552 24-155): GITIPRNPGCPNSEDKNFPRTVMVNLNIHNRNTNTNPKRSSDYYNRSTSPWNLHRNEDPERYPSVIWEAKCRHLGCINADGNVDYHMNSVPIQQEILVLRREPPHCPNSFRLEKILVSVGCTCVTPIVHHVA
Assay: IL-17A AlphaLISA competition assay (block of IL-17A binding to its receptor IL-17RA)
Conditions: mean IC50 (n≥2), block of IL-17A binding to IL-17RA
Method: The ability of the compounds to block binding of IL-17A to its receptor, IL-17RA, was analysed in a competition assay using AlphaLISA technology (Perkin Elmer). The assay is a bead based AlphaLISA where the IL-17RA is captured on the acceptor bead via an Fc tag and IL-17A is captured on the streptavidin donor bead via a biotinylated anti-IL17A antibody.
Assay buffer was prepared by adding 0.05% Tween-20 (v/v) and 0.1% BSA to Phosphate Buffered Saline (PBS). The assay was carried out in 384-well white low volume plates (Perkin Elmer #6008359). 10 μL of a 7.5 nM stock of human recombinant IL-17A (R&D Systems 7955-IL/CF) diluted in assay buffer was dispensed into the assay plate and compounds or DMSO vehicle control were added in a volume of 75 nL using an acoustic dispenser (Beckman). The compounds were pre-incubated with the IL-17A for 30 min at room temperature prior to addition of 5 μL of a 5 nM stock of human recombinant IL-17RA/Fc chimera (R&D Systems 177-IR-100) diluted in assay buffer. The IL-17A was incubated with the receptor for a further 90 minutes at room temperature before addition of 5 μL of a mixture of anti-human Fc IgG acceptor beads (75 μg/mL, Perkin Elmer AL1030) and anti-IL-17A biotin conjugated antibody (5 nM, Abcam, #ab155575) in assay buffer. After a further 30 min incubation at room temperature, 5 μL of streptavidin donor beads (75 μg/mL, Perkin Elmer 6760002S) were added and the plate was incubated for 3 h in the dark.
The AlphaLisa signal was measured using the PheraSTAR plate reader (BMG). Data were analysed using GeneData Screener and fitted to a 4-parameter logistic equation. The IC50 values were calculated using the DMSO vehicle as the negative control and a high concentration (4 μM) of a reference IL-17A inhibitor as the positive control. All compounds were analysed at least in duplicate (n≥2).

IC50 [µM] | Structure (SMILES)
0.033 | COCC(c1ccnc(NC(=O)C(NC(=O)C(F)(F)c2cnccn2)C2CCC(C)CC2)c1)N1CC(C(F)(F)F)NC1=O (single isomer, unassigned) [Example 251]
0.049 | COCC(c1ccnc(NC(=O)C(NC(=O)C(F)(F)c2ccc(OC)nc2)C2CCC(C)CC2)c1)N1CC(C(F)(F)F)NC1=O (single isomer, unassigned) [Example 252]
0.106 | COCC(c1ccnc(NC(=O)C(NC(=O)Cc2cc(C)on2)C2CCC(C)CC2)c1)N1CC(C(F)(F)F)NC1=O (single isomer, unassigned) [Example 253]
0.071 | COCC(c1ccnc(NC(=O)C(NC(=O)C(F)(F)C(C)C)C2CCC(C)CC2)c1)N1CC(C(F)(F)F)NC1=O (single isomer, unassigned) [Example 255]
0.024 | COC[C@H](c1ccnc(NC(=O)C(NC(=O)c2nonc2C2CC2)C2CCC(F)CC2)c1)N1C[C@@H](C(F)(F)F)NC1=O (single isomer, unassigned) [Example 276]
0.044 | COC[C@H](c1ccnc(NC(=O)C(NC(=O)c2nonc2C2CC2)C2CCC(F)CC2)c1)N1C[C@@H](C(F)(F)F)NC1=O (single isomer, unassigned) [Example 277]
1.89 | COC[C@H](c1ccnc(NC(=O)C(NC(=O)c2nonc2C2CC2)C2CCC(F)CC2)c1)N1C[C@@H](C(F)(F)F)NC1=O (single isomer, unassigned) [Example 278]
12 | COC[C@H](c1ccnc(NC(=O)C(NC(=O)c2nonc2C2CC2)C2CCC(F)CC2)c1)N1C[C@@H](C(F)(F)F)NC1=O (single isomer, unassigned) [Example 279]
0.065 | CCn1nccc1C(=O)NC(C(=O)Nc1cc([C@@H](COC)N2C[C@@H](C(F)(F)F)NC2=O)ccn1)C1CCC(F)CC1 (single isomer, unassigned) [Example 280]

The next lines start with the compound.

Structure (SMILES) | IC50 [µM]
O=C(N[C@H](C(=O)Nc1cc(C(C2CC2)N2C[C@@H](C(F)(F)F)NC2=O)ccn1)C1CCC(F)(F)CC1)c1nonc1C1CC1 (single isomer, unassigned) [Example 163, 4-Cyclopropyl-N-((S)-2-((4-((R or S)-cyclopropyl((S)-2-oxo-4-(trifluoromethyl)imidazolidin-1-yl)methyl)pyridin-2-yl)amino)-1-(4,4-difluorocyclohexyl)-2-oxoethyl)-1,2,5-oxadiazole-3-carboxamide] | 0.02
Cc1nonc1C(=O)N[C@H](C(=O)Nc1cc(C(C2CC2)N2C[C@@H](C(F)(F)F)NC2=O)ccn1)C1CCC(F)(F)CC1 (single isomer, unassigned) [Example 164, N-((1S)-2-((4-((R or S)-cyclopropyl((S)-2-oxo-4-(trifluoromethyl)imidazolidin-1-yl)methyl)pyridin-2-yl)amino)-1-(4,4-difluorocyclohexyl)-2-oxoethyl)-4-methyl-1,2,5-oxadiazole-3-carboxamide] | 0.035
CCn1nccc1C(=O)N[C@H](C(=O)Nc1cc(C(C2CC2)N2C[C@@H](C(F)(F)F)NC2=O)ccn1)C1CCC(F)(F)CC1 (single isomer, unassigned) [Example 165, N-((1S)-2-((4-((R or S)-cyclopropyl((S)-2-oxo-4-(trifluoromethyl)imidazolidin-1-yl)methyl)pyridin-2-yl)amino)-1-(4,4-difluorocyclohexyl)-2-oxoethyl)-1-ethyl-1H-pyrazole-5-carboxamide] | 0.041
Cn1nccc1C(=O)N[C@H](C(=O)Nc1cc(C(C2CC2)N2C[C@@H](C(F)(F)F)NC2=O)ccn1)C1CCC(F)(F)CC1 (single isomer, unassigned) [Example 166, N-((1S)-2-((4-((R or S)-cyclopropyl((S)-2-oxo-4-(trifluoromethyl)imidazolidin-1-yl)methyl)pyridin-2-yl)amino)-1-(4,4-difluorocyclohexyl)-2-oxoethyl)-1-methyl-1H-pyrazole-5-carboxamide] | 0.05
Cc1nonc1C(=O)N[C@H](C(=O)Nc1cc(C(C)N2C[C@@H](C(F)(F)F)NC2=O)ccn1)C1CCC(F)(F)CC1 (single isomer, unassigned) [Example 169, N-((1S)-1-(4,4-Difluorocyclohexyl)-2-oxo-2-((4-(R or S)-(1-((S)-2-oxo-4-(trifluoromethyl)imidazolidin-1-yl)ethyl)pyridin-2-yl)amino)ethyl)-4-methyl-1,2,5-oxadiazole-3-carboxamide] | 0.079
CC(c1ccnc(NC(=O)[C@@H](NC(=O)c2nonc2C2CC2)C2CCC(F)(F)CC2)c1)N1C[C@@H](C(F)(F)F)NC1=O (single isomer, unassigned) [Example 170, 4-cyclopropyl-N-((S)-1-(4,4-difluorocyclohexyl)-2-oxo-2-((4-((R or S)-1-((S)-2-oxo-4-(trifluoromethyl)imidazolidin-1-yl)ethyl)pyridin-2-yl)amino)ethyl)-1,2,5-oxadiazole-3-carboxamide] | 0.021
CC(c1ccnc(NC(=O)[C@@H](NC(=O)c2ccnn2C)C2CCC(F)(F)CC2)c1)N1C[C@@H](C(F)(F)F)NC1=O (single isomer, unassigned) [Example 171, N-((1S)-1-(4,4-difluorocyclohexyl)-2-oxo-2-((4-((R or S)-1-((S)-2-oxo-4-(trifluoromethyl)imidazolidin-1-yl)ethyl)pyridin-2-yl)amino)ethyl)-1-methyl-1H-pyrazole-5-carboxamide] | 0.067
COCC(c1ccnc(NC(=O)[C@@H](NC(=O)c2nonc2C2CC2)C2CCC(F)(F)CC2)c1)[C@@H]1C[C@@H](C(F)(F)F)NC1=O (single isomer, unassigned) [Example 184, 4-Cyclopropyl-N—((S)-1-(4,4-difluorocyclohexyl)-2-((4-((R or S)-2-methoxy-1-((3S,5S)-2-oxo-5-(trifluoromethyl)pyrrolidin-3-yl)ethyl)pyridin-2-yl)amino)-2-oxoethyl)-1,2,5-oxadiazole-3-carboxamide] | 0.637
COCC(c1ccnc(NC(=O)[C@@H](NC(=O)c2nonc2C2CC2)C2CCC(F)(F)CC2)c1)[C@H]1C[C@@H](C(F)(F)F)NC1=O (single isomer, unassigned) [Example 185, 4-Cyclopropyl-N-((1S)-1-(4,4-difluorocyclohexyl)-2-((4-((R or S)-2-methoxy-1-((3R,5S)-2-oxo-5-(trifluoromethyl)pyrrolidin-3-yl)ethyl)pyridin-2-yl)amino)-2-oxoethyl)-1,2,5-oxadiazole-3-carboxamide] | 0.046
COCC(c1ccnc(NC(=O)[C@@H](NC(=O)c2nonc2C2CC2)C2CCC(F)(F)CC2)c1)[C@H]1C[C@@H](C(F)(F)F)NC1=O (single isomer, unassigned) [Example 186, 4-Cyclopropyl-N-((1S)-1-(4,4-difluorocyclohexyl)-2-((4-((R or S)-2-methoxy-1-((3R,5S)-2-oxo-5-(trifluoromethyl)pyrrolidin-3-yl)ethyl)pyridin-2-yl)amino)-2-oxoethyl)-1,2,5-oxadiazole-3-carboxamide] | 0.069
C[C@H]1CC[C@H]([C@H](NC(=O)c2nonc2C2CC2)C(=O)Nc2cc(C(CO)N3C[C@@H](C(F)(F)F)NC3=O)ccn2)CC1 (single isomer, unassigned) [Example 233, 4-Cyclopropyl-N-((1S)-2-((4-((R or S)-2-hydroxy-1-((S)-2-oxo-4-(trifluoro-methyl)imidazolidin-1-yl)ethyl)pyridin-2-yl)amino)-1-((1r,4S)-4-methylcyclohexyl)-2-oxoethyl)-1,2,5-oxadiazole-3-carboxamide] | 0.009
C[C@H]1CC[C@H]([C@H](NC(=O)c2nonc2C2CC2)C(=O)Nc2cc(C(CO)N3C[C@@H](C(F)(F)F)NC3=O)ccn2)CC1 (single isomer, unassigned) [Example 234, 4-Cyclopropyl-N-((1S)-2-((4-((R or S)-2-hydroxy-1-((S)-2-oxo-4-(trifluoromethyl)imidazolidin-1-yl)ethyl)pyridin-2-yl)amino)-1-((1r,4S)-4-methylcyclohexyl)-2-oxoethyl)-1,2,5-oxadiazole-3-carboxamide] | 0.039
COCC(c1ccnc(NC(=O)C(NC(=O)C(F)(F)c2ccnn2C)C2CCC(C)CC2)c1)N1CC(C(F)(F)F)NC1=O (single isomer, unassigned) [Example 248] | 0.054
COCC(c1ccnc(NC(=O)C(NC(=O)C(F)(F)c2cccc(Cl)c2)C2CCC(C)CC2)c1)N1CC(C(F)(F)F)NC1=O (single isomer, unassigned) [Example 249] | 0.049
COCC(c1ccnc(NC(=O)C(NC(=O)C(F)(F)c2cc(F)cc(F)c2)C2CCC(C)CC2)c1)N1CC(C(F)(F)F)NC1=O (single isomer, unassigned) [Example 250] | 0.038
